Marks after values point to notes of the source that are not given here.
How the values were obtained:
Format in all cases: in vivo
[1] = test system: spring barley (Hordeum vulgare), malting variety Bojos; assay: Field experiment, spring barley, foliar spraying; details: 5 μM foliar; for Grain yield: control 7.653; for Number of grains/spike: control 23.49; for Thousand grain weight: control 45.85; for Number of tillers: control 4.61; for Number of spikes/m^2: control 700.4
Excerpt: The initial field experiments were done with spring barley (Hordeum vulgare), malting variety Bojos in field plots of University of Palacky in Olomouc. All field experiments were done according to criteria for Good Experimental Practices. Six repetitions (each 10 m^2) were used per one variant, sowing rate was 3.5 millions of germinated grains per hectare. Field trials were not treated by growth regulators and fungicides, except of applied compounds. Compounds 1-(2-methoxy-ethyl)-3-[1,2,3]thiadiazol-5-yl-urea and 1-(2-chloro-ethyl)-3-[1,2,3]thiadiazol-5-yl-urea were applied once in indicated time (Tillering, BBCH 23-25 or Inflorescence emergence, BBCH 51-53) by foliar spraying in concentration 5 μM. For each variant at least 50 plants were used to obtain morphology parameters. Statistical evaluation was executed in stat. program PAST v. 2.17c.

[2] = test system: winter wheat, Triticum aestivum cv. Hereward; assay: Saline stress-induced senescence of wheat plants; details: 100 nM, 75 mM NaCl, assessed 25 and 30 days after planting
Protocol: To investigate the effect of compound 6 to saline-induced senescence seeds of winter wheat, Triticum aestivum cv. Hereward, were washed under running water for 24 hours and then sown to 1 L containers on perlite soaked with water or 100 nM water solution of […]. Containers were placed in the growth chamber at 25° C. with a 16/8 h light period at 50 μmol·m^−2·s^−1. Seven days after planting the plants were treated by 75 mM NaCl solution. Plants were allowed to grow and 25 and 30 days after planting the result was assessed.

[3] = test system: winter wheat, Triticum aestivum cv. Hereward; assay: Drought stress tolerance of wheat plants; details: 100 nM aqueous solution, drought stress last 20 days, 30 days after planting; untreated 37%
Protocol: To investigate the effect of 1-(2-methoxy-ethyl)-3-[1,2,3]thiadiazol-5-yl-urea and 1-furfuryl-[1,2,3]thiadiazol-5-yl-urea to drought-induced senescence, seeds of winter wheat, Triticum aestivum cv. Hereward, were washed under running water for 24 hours and then sown into trays with perlite (30×40 cm) and soaked by water, or 100 nM aqueous solution of 1-(2-methoxy-ethyl)-3-[1,2,3]thiadiazol-5-yl-urea or 1-furfuryl-[1,2,3]thiadiazol-5-yl-urea. The trays were placed in a growth chamber at 25° C. with 8/16 hours light/dark cycle at intensity […]. Plants were under drought stress last 20 days. 30 Days after planting it was counted how many plants survived on individual trays.

winter oilseed rape = assay: Field experiment, winter oilseed rape, foliar spray; details: 25 μM foliar spray, BBCH 50
Protocol: (§1) All field experiments were done according to criteria for Good Experimental Practices. Six repetitions (10 m^2 each) were used per one variant. Field trials were not treated by growth regulators and fungicides, except of applied compound 1-furfuryl-[1,2,3]thiadiazol-5-yl-urea. N-furfuryl-N′-1,2,3-thiadiazol-5-yl-urea was applied once at the precise time (extension growth BBCH 50), by foliar spray at a concentration of 25 μM. For each variant at least 50 plants were used to obtain morphology parameters. Statistical evaluation was executed in stat. program PAST v. 2.17c.

spring barley = assay: Field experiments, spring barley, years 2014 and 2015, foliar spray
Protocol: as §1
All field experiments were done according to criteria for Good Experimental Practices as described in example 17. N-furfuryl-N′-1,2,3-thiadiazol-5-yl-urea was applied once at the precise time (extension growth BBCH 50), by foliar spray at a concentration of 25 μM in a year 2014 and at a concentration of 5 μM in a year 2015. For each variant at least 50 plants were used to obtain morphology parameters. Statistical evaluation was executed in stat. program PAST v. 2.17c.

[4] = Inflorescence emergence, BBCH 51-53
[5] = Tillering, BBCH 23-25, listed as compound 6

Row | Structure (SMILES) | Grain yield, % of control [1, 4] [%] | Number of grains/spike, % of control [1, 4] [%] | Thousand grain weight, % of control [1, 4] [%] | Grain yield [1, 4] [t/ha] | Number of grains/spike [1, 4] | Thousand grain weight [1, 4] [g] | Grain yield, % of control ([1]; Tillering, BBCH 23-25) [%] | Number of grains/spike, % of control ([1]; Tillering, BBCH 23-25) [%] | Number of spikes/m^2, % of control ([1]; Tillering, BBCH 23-25) | Number of tillers, % of control ([1]; Tillering, BBCH 23-25) | Thousand grain weight, % of control ([1]; Tillering, BBCH 23-25) [%] | Number of tillers ([1]; Tillering, BBCH 23-25) | Grain yield ([1]; Tillering, BBCH 23-25) [t/ha] | Number of grains/spike ([1]; Tillering, BBCH 23-25) | Thousand grain weight ([1]; Tillering, BBCH 23-25) [g] | Number of spikes/m^2 ([1]; Tillering, BBCH 23-25) | plants survived [3] [%] | other results
1 | O=C(NCCCl)Nc1cnns1 [Compound 65, 1-(2-Chloro-ethyl)-3-[1,2,3]thiadiazol-5-yl-urea] | 109.7 | 102.9 | 100.2 | 8.398 | 24.17 | 45.96 | 109.3 | 103.9 | 109.2* % | 109.2% | 99.0 | 5.0 | 8.362 | 24.42 | 45.35 | 764.8* |  | Number of spikes/m^2, % of control ([1]; Tillering, BBCH 23-25, listed as compound 65): 109.2%
2 | COCCNC(=O)Nc1cnns1 [Compound 6, 1-(2-methoxy-ethyl)-3-[1,2,3]thiadiazol-5-yl-urea] | 103.6 | 99.5 | 102.0 | 7.927 | 23.37 | 46.77 | 111.3 | 103.3 | 110.3* % | 115.7* % | 102.9 | 5.3* | 8.517 | 24.27 | 47.18 | 772.4* | 82 | effect on saline stress-induced senescence (in words) [2]: significantly delays stress-induced senescence; Number of spikes/m^2, % of control [1, 5]: 110.3%; Number of tillers, % of control [1, 5]: 115.7%
3 | O=C(NCc1ccco1)Nc1cnns1 [Compound 84, N-furfuryl-N′-1,2,3-thiadiazol-5-yl-urea] |  |  |  |  |  |  |  |  |  |  |  |  |  |  |  |  | 71 | WTK (weight of a thousand kernels) (winter oilseed rape; control 4.35): 4.8 g; Seed yield (winter oilseed rape; control 4.994): 6.038 t/ha; WTK, % of control (winter oilseed rape; listed as Comp. 84): 110.3%; WTK, % of control (spring barley; Year 2014, 25 μM foliar spray): 100.06%; Seed yield (spring barley; Year 2014, 25 μM foliar spray, control 7.65): 8.02 t/ha; grains per ear (spring barley; Year 2014, 25 μM foliar spray, control 23.5): 24.6; WTK (spring barley; Year 2014, 25 μM foliar spray, control 45.85): 45.88 g; Seed yield (spring barley; Year 2015, 5 μM foliar spray, control 7.01): 7.49 t/ha
